Converted amounts (≈) assume the structure as drawn. Like-named read-outs stand apart in the source and are kept apart here. One block for each compound: values may come before it.
Key:
[1] = test system: MRSA; test: Disk diffusion assay, zone of inhibition, MRSA; format: cell-based, Staphylococcus aureus; details: disk diffusion zone of inhibition
[2] = test system: M. smegmatis (mc2155); test: Disk diffusion assay, zone of inhibition, M. smegmatis; format: cell-based; details: disk diffusion zone of inhibition
[3] = test system: S. aureus ATCC 29213 (MSSA); test: Broth dilution MIC, S. aureus ATCC 29213; format: cell-based; details: for MIC: Staphylococcus aureus
[4] = test system: S. aureus ATCC 33591 (MRSA); test: Broth dilution MIC, S. aureus ATCC 33591; format: cell-based; details: for MIC: Staphylococcus aureus
[5] = test system: S. aureus BAA-39 (MDR); test: Broth dilution MIC, S. aureus BAA-39; format: cell-based; details: for MIC: Staphylococcus aureus, BAA39
[6] = test system: S. pneumoniae ATCC 6301 (PSSP); test: Broth dilution MIC, S. pneumoniae ATCC 6301; format: cell-based; details: for MIC: Streptococcus pneumoniae
[7] = test system: S. pneumoniae ATCC 700674 (PRSP); test: Broth dilution MIC, S. pneumoniae ATCC 700674; format: cell-based; details: for MIC: Streptococcus pneumoniae
[8] = test system: E. faecalis ATCC 29212 (VRE); test: Broth dilution MIC, E. faecalis ATCC 29212; format: cell-based
[9] = test system: E. faecium ATCC 700221 (VRE); test: Broth dilution MIC, E. faecium ATCC 700221; format: cell-based
[10] = test system: E. faecium CT-26; test: Broth dilution MIC, E. faecium CT-26; format: cell-based; details: for MIC: Enterococcus faecium
[11] = test system: E. coli ECM 1694; test: Broth dilution MIC, E. coli ECM 1694; format: cell-based; details: for MIC: Escherichia coli
[12] = test system: E. coli ATCC 25922; test: Broth dilution MIC, E. coli ATCC 25922; format: cell-based; details: for MIC: Escherichia coli
[13] = test system: K. pneumoniae ATCC 13883; test: Broth dilution MIC, K. pneumoniae ATCC 13883; format: cell-based; details: for MIC: Klebsiella pneumoniae
[14] = test system: K. pneumoniae ATCC 51503; test: Broth dilution MIC, K. pneumoniae ATCC 51503; format: cell-based; details: for MIC: Klebsiella pneumoniae
[15] = test system: P. aeruginosa ATCC 9027; test: Broth dilution MIC, P. aeruginosa ATCC 9027; format: cell-based; details: for MIC: Pseudomonas aeruginosa
[16] = test system: C. albicans ATCC 14053; test: Broth dilution MIC, C. albicans ATCC 14053; format: cell-based; details: Candida albicans, ATCC14053; Table 1; range 64 down to 0.12 μg/ml
Method: In vitro Anti-bacterial & Anti-fungal Activity Assay: All test compounds were prepared as 6.4 mg/ml stock solutions in DMSO and further diluted according to the NCCLS M7-A6 (Page 5) document with sterile water or appropriate diluent. A working stock of 256 μg/ml was used to do 1:2 serial dilutions in 96-well plates. […] The inoculums were prepared by making a direct sterile water suspension of isolated colonies from 18 to 24 hr agar plates for all organisms (Mueller Hinton, Blood Agar or SDA plates). Each bacterial suspension was adjusted to read between 0.09 and 0.11 absorbance at 620 nm. […] These were further diluted 1/100 in appropriate broth for inoculating the 96-well plates. The C. albicans suspension was adjusted to read between 70 and 75% Transmittance at 530 nm and then diluted 1/500 in RPMI+MOPS broth. All aerobic bacterial and fungal plates were incubated for 18 hrs. at 35° C. […] Plates were read using a Beckman Automated Plate Reader at 650 nm. Readings were confirmed by visual examination of plates. (See Table 1, Table 2, Table 3, and Table 4). […] It is important to note that positive results against C. albicans are often indicative of broad spectrum antifungal activity, while negative results are not necessarily conclusory of a lack of activity against other fungus.

[17] = Table 4, broth dilution MIC according to CLSI standards (NAEJA)

SMILES: Nc1ccc(-c2cc3ccc(C4=NCCN4)cc3[nH]2)cc1 [Compound 398657]
Zone Size MRSA [1]: 8.3 mm
Zone Size M. smegmatis [2]: 9.2 mm

MIC S. aureus ATCC 29213 ([3]; Table 3, starting at 4 μg/ml): 0.016 µg/mL (≈ 0.0534 µM)
MIC MSSA S. aureus ATCC 29213 [3, 17]: 0.06 µg/mL (≈ 0.2 µM)
MIC S. aureus ATCC 33591 ([4]; Table 3, starting at 4 μg/ml): >4 µg/mL
MIC MRSA S. aureus ATCC 33591 [4, 17]: >4 µg/mL
MIC S. aureus BAA-39 ([5]; Table 3, starting at 4 μg/ml): 1 µg/mL (≈ 3.34 µM)
MIC MDR S. aureus BAA-39 [5, 17]: 4 µg/mL (≈ 13.4 µM)
MIC S. pneumoniae ATCC 6301 ([6]; Table 3, starting at 4 μg/ml): ≦0.008 mcg/ml
MIC PSSP S. pneumoniae ATCC 6301 [6, 17]: 0.015 µg/mL (≈ 0.0501 µM)
MIC S. pneumoniae ATCC 700674 ([7]; Table 3, starting at 4 μg/ml): 0.06 µg/mL (≈ 0.2 µM)
MIC PRSP S. pneumoniae ATCC 700674 [7, 17]: 0.5 µg/mL (≈ 1.67 µM)
MIC E. faecalis ATCC 29212 ([8]; Table 3, starting at 4 μg/ml): 1 µg/mL (≈ 3.34 µM)
MIC VRE E. faecalis ATCC 29212 [8, 17]: 4 µg/mL (≈ 13.4 µM)
MIC E. faecium ATCC 700221 ([9]; Table 3, starting at 4 μg/ml): >4 µg/mL
MIC VRE E. faecium ATCC 700221 [9, 17]: >4 µg/mL
MIC E. faecium CT-26 ([10]; Table 3, starting at 4 μg/ml): >4 µg/mL
MIC E. faecium CT-26 [10, 17]: >4 µg/mL
MIC E. coli ECM 1694 ([11]; Table 3, starting at 4 μg/ml): 0.5 µg/mL (≈ 1.67 µM)
MIC E. coli ECM 1694 [11, 17]: 2 µg/mL (≈ 6.68 µM)
MIC E. coli ATCC 25922 [12, 17]: 1 µg/mL (≈ 3.34 µM)
MIC K. pneumoniae ATCC 13883 [13, 17]: 2 µg/mL (≈ 6.68 µM)
MIC K. pneumoniae ATCC 51503 [14, 17]: 2 µg/mL (≈ 6.68 µM)
MIC P. aeruginosa ATCC 9027 [15, 17]: 4 µg/mL (≈ 13.4 µM)
SMILES: C[C@@H](O)[C@H]1C(=O)N2C(C(=O)O)=C(SCCN=CN)C[C@H]12 [IMP, reference compound]

MIC ([3]; Table 1, range 64 down to 0.12 μg/ml, read-out: MIC S. aureus ATCC 29213): 8 µg/mL (≈ 22.7 µM)
MIC ([3]; Table 2, broth dilution MIC in ug/ml, read-out: MIC S aureus ATCC 29213 MSSA): 8 µg/mL (≈ 22.7 µM)
MIC ([4]; Table 1, range 64 down to 0.12 μg/ml, read-out: MIC S. aureus ATCC 33591): 4 µg/mL (≈ 11.3 µM)
MIC ([4]; Table 2, broth dilution MIC in ug/ml, read-out: MIC S aureus ATCC 33591 MRSA): 4 µg/mL (≈ 11.3 µM)
MIC ([5]; Table 1, range 64 down to 0.12 μg/ml, read-out: MIC S. aureus BAA-39): 4 µg/mL (≈ 11.3 µM)
MIC ([5]; Table 2, broth dilution MIC in ug/ml, read-out: MIC S aureus BAA-39 MDR): 4 µg/mL (≈ 11.3 µM)
MIC ([6]; ATCC6301, Table 1, range 64 down to 0.12 μg/ml, read-out: MIC S. pneumoniae ATCC 6301): 2 µg/mL (≈ 5.67 µM)
MIC ([6]; ATCC6301, Table 2, broth dilution MIC in ug/ml, read-out: MIC S pneumonia ATCC 6301 PSSP): 2 µg/mL (≈ 5.67 µM)
MIC ([7]; Table 1, range 64 down to 0.12 μg/ml, read-out: MIC S. pneumoniae ATCC 700674): 4 µg/mL (≈ 11.3 µM)
MIC ([7]; Table 2, broth dilution MIC in ug/ml, read-out: MIC S pneumonia ATCC 700674 PRSP): 4 µg/mL (≈ 11.3 µM)
MIC ([8]; Enterococcus faecalis, Table 1, range 64 down to 0.12 μg/ml, read-out: MIC E. faecalis ATCC 29212): 2 µg/mL (≈ 5.67 µM)
MIC ([8]; Table 2, broth dilution MIC in ug/ml, read-out: MIC E faecalis ATCC 29212 VRE): 2 µg/mL (≈ 5.67 µM)
MIC ([9]; Enterococcus faecium, Table 1, range 64 down to 0.12 μg/ml, read-out: MIC E. faecium ATCC 700221): 2 µg/mL (≈ 5.67 µM)
MIC ([9]; Table 2, broth dilution MIC in ug/ml, read-out: MIC E faecium ATCC 700221 VRE): 2 µg/mL (≈ 5.67 µM)
MIC ([10]; CT26, Table 1, range 64 down to 0.12 μg/ml, read-out: MIC E. faecium CT-26): 2 µg/mL (≈ 5.67 µM)
MIC ([10]; CT26, Table 2, broth dilution MIC in ug/ml, read-out: MIC E faecium CT-25): 2 µg/mL (≈ 5.67 µM)
MIC ([11]; ECM1694, Table 1, range 64 down to 0.12 μg/ml, read-out: MIC E. coli ECM 1694): 2 µg/mL (≈ 5.67 µM)
MIC ([11]; ECM1694, Table 2, broth dilution MIC in ug/ml, read-out: MIC E. coli ECM 1693): 2 µg/mL (≈ 5.67 µM)
MIC ([12]; ATCC 25921 / ATCC 25922, Table 2, broth dilution MIC in ug/ml, read-out: MIC E. coli ATCC 25921): 16 µg/mL (≈ 45.4 µM)
MIC ([12]; ATCC25922, Table 1, range 64 down to 0.12 μg/ml, read-out: MIC E. coli ATCC 25922): 16 µg/mL (≈ 45.4 µM)
MIC ([13]; ATCC13883, Table 1, range 64 down to 0.12 μg/ml, read-out: MIC K. pneumoniae ATCC 13883): 32 µg/mL (≈ 90.8 µM)
MIC ([13]; ATCC13883, Table 2, broth dilution MIC in ug/ml, read-out: MIC K pneumonia ATCC 13883): 32 µg/mL (≈ 90.8 µM)
MIC ([14]; ATCC51503, Table 1, range 64 down to 0.12 μg/ml, read-out: MIC K. pneumoniae ATCC 51503): 64 µg/mL (≈ 182 µM)
MIC ([14]; ATCC51503, Table 2, broth dilution MIC in ug/ml, read-out: MIC K pneumonia ATCC 51503): 64 µg/mL (≈ 182 µM)
MIC ([15]; ATCC 9026 / ATCC 9027, Table 2, broth dilution MIC in ug/ml, read-out: MIC P aeruginosa ATCC 9026): 64 µg/mL (≈ 182 µM)
MIC ([15]; ATCC9027, Table 1, range 64 down to 0.12 μg/ml, read-out: MIC P. aeruginosa ATCC 9027): 64 µg/mL (≈ 182 µM)
MIC [16]: 16 µg/mL (≈ 45.4 µM)
SMILES: c1ccc(Nc2ccc(-c3cc4ccc(C5=NCCN5)cc4[nH]3)cc2)cc1 [SKI-2]
Zone Size MRSA [1]: 10 mm
Zone Size M. smegmatis [2]: 14.3 mm

— patent US20150291565A1, “INDOLE COMPOUNDS AND THEIR USE AS ANTIMICROBIALS” (Memorial Sloan-Kettering Cancer Center, priority 2012, published 2015)
